Here are results for three compounds from patent US20120040904A1, “Boronate Medicaments for Preventing Thrombosis During Surgery” (Trigen Holdings AG, priority 2004, published 2012).

Data set [1] can be described thus: Comparative storage stability of sodium and calcium salts (Example 42). In kind it is physicochemical. To be noted: for Tri50c (w/w %, LOD corr.): corrected for loss on drying. From the text:
In both studies the active pharmaceutical ingredient was stored in grip sealed double bags within a PE/PP screw cap closed cylinder.

For data set [2], the system named is healthy male subjects. In words: Intravenous administration into humans (randomised double blind placebo study). In kind it is in vivo. To be noted: intravenous infusion. As for the experimental part: The test consisted of three groups, each of six males. From each group 5 men were given the active ingredient and 1 was given a placebo.
Total I.V. administered doses were: • 82 mg (7 mg intravenous bolus (over 30 s) followed by an infusion of 25 mg/h for 3 hours). • 130 mg (10 mg intravenous bolus (over 30 s) followed by an infusion of 40 mg/h for 3 hours). • 120 mg (by infusion of 40 mg/h for 3 hours).

The subject of data set [3] is beagle dogs. The data set is described as follows: Intravenous administration in beagle dogs, PK/PD (thrombin time, APTT). In kind it is in vivo. To be noted: 1.0 mg/kg i.v. As for the experimental part:
Plasma concentrations were measured using an LCMS/MS method.
Blood samples were taken into 3.8% tri-sodium citrate (1+8) at pre dose, 2, 5, 10, 20, 30, minutes post dose and then at 1, 2, 3, 4, 6, 8, 12 and 24 hours post dose. Plasma was prepared by centrifugation and frozen at minus 20° C. pending analysis.

Data set [4] deals with dogs undergoing hypothermic CPB. The data set is described as follows: Simulated mitral valve repair in dogs undergoing hypothermic CPB. In kind it is in vivo, beagle dogs. To be noted: intravenous, dogs on CPB. As for the experimental part:
Following a dose ranging study in conscious dogs, six beagle dogs were placed on CPB and underwent a simulated mitral valve repair. A range of dynamic coagulation markers were measured, including thrombin clotting time (TT), activated partial thromboplastin time (APTT), activated clotting time (ACT), ecarin clotting time (ECT), whole blood thrombin clotting time, platelet counts and function tests. In addition, pre and post-operative echocardiograms and intra-operative blood loss were evaluated. […] By virtue of its predictable anticoagulant efficacy and controlled duration of action, TGN 255 offers potential in on pump and off pump coronary bypass procedures.

Data set [5] in a line: Maximum solution concentration with and without pH control. In kind it is physicochemical.
Data set [6] in a line: Stability: HPLC assay before and after drying over phosphorus pentoxide for 1 week. In kind it is physicochemical. To be noted: dry. As for the experimental part:
An assay of TRI 50c and its sodium and lysine salts before and after drying.
For sample analysis, 5 mg of dried and non-dried material was weighed in a 5 mL volumetric flask and dissolved in 1 mL acetonitrile and filled up with demineralised water to 5 mL.
The quantitative evaluation was performed using an HPLC-PDA method.

Marks after values point to notes of the source that are not given here.

For `COCCC[C@H](NC(=O)[C@@H]1CCCN1C(=O)[C@@H](Cc1ccccc1)NC(=O)OCc1ccccc1)B([O-])O.COCCC[C@H](NC(=O)[C@@H]1CCCN1C(=O)[C@@H](Cc1ccccc1)NC(=O)OCc1ccccc1)B([O-])O.[Ca+2]` [TRI 50c calcium salt], the “Tri50c (w/w %, LOD corr.)” value in data set [1] (T = 0) is “(99.7) w/w %”; in data set [1] (T = 1, 25° C./60% r.h.), “(101.5) w/w %”; in data set [1] (T = 1, 40° C./75% r.h.), “(100.6) w/w %”; in data set [1] (T = 1, −20° C.), “(102.7)^x w/w %”; in data set [1] (T = 3, 25° C./60% r.h.), “(104.3) w/w %”; in data set [1] (T = 3, 40° C./75% r.h.), “(82.0) w/w %”. Further, the “Tri50c (w/w %, LOD corr.)” value in data set [1] (T = 3, −20° C.) was “(103.0)^x w/w %”. In addition, the “TRI 50c (w/w)” value in data set [1] (T = 12 25° C./60% r.h.) stood at 94.8 w/w.
On to `COCCC[C@H](NC(=O)[C@@H]1CCCN1C(=O)[C@@H](Cc1ccccc1)NC(=O)OCc1ccccc1)B(O)O.[Na+]` [TRI 50c sodium salt, Cbz-(R)-Phe-(S)-Pro-(R)-Mpg-B(OH)2 monosodium salt], for which the “Effect on thrombin time (TT)” value in data set [2] is reported as “rapid, dose-related increase”. The compound further yielded an APTT elevation in data set [3] of 1.3 times. Moreover, in data set [4], the “Anticoagulation during bypass and surgery” value was “excellent anticoagulation”; the “Bleeding during bypass and surgery” value is listed as “little bleeding”. For the same compound, the Maximum concentration result in data set [5] (control solution, about pH 7) is “about 20 mg/ml”. In addition, the “Concentration of solution obtainable” value in data set [5] (pH of about 9.5, pH not controlled) was “about 600 mg/ml”.
Consider `COCCC[C@H](NC(=O)[C@@H]1CCCN1C(=O)[C@@H](Cc1ccccc1)NC(=O)OCc1ccccc1)B(O)O` [TRI 50c, Cbz-(R)-Phe-(S)-Pro-(R)-boroMpg-OH], for which the Amount in data set [6] came out at 1000.0 µg/mL.
